Experimental data taken from publication PMC6487453 (ACS Central Science, 2019).

Target: T1, LTA4H (Homo sapiens, UniProt P09960)
T1 sequence (P09960 2-611): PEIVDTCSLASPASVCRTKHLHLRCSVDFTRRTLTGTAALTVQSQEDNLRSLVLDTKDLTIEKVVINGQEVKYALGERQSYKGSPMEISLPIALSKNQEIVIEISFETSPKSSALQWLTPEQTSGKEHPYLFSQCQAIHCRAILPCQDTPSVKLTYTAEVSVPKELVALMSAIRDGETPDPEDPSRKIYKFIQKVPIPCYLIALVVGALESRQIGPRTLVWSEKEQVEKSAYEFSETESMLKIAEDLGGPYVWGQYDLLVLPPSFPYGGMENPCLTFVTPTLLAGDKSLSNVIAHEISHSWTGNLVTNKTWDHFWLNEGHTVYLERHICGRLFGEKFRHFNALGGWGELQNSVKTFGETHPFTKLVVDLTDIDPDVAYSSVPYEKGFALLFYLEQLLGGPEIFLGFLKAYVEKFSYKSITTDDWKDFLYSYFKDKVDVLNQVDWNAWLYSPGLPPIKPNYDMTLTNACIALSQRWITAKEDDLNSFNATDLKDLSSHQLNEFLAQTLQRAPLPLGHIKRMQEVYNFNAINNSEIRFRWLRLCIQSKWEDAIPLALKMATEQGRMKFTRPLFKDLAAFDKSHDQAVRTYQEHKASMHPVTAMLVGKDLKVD
Test: colorimetric peptidase assay, 4-nitroaniline absorption at […] nm
Type: biochemical
Details: 50 mM HEPES pH 7.5, 100 mM KCl

| Structure (SMILES) | colorimetric peptidase assay, 4-nitroaniline absorption at 410 nm (1 mM substrate) | colorimetric peptidase assay, 4-nitroaniline absorption at 410 nm (inhibitor, L-alanine 4-nitroanilide 1 mM, 460 nm light) |
| --- | --- | --- |
| C[C@H](N)C(=O)Nc1ccc([N+](=O)[O-])cc1 [L-alanine 4-nitroanilide] | L-alanine 4-nitroanilide which is converted to the strongly absorbing 4-nitroaniline | – |
| c1ccc(/N=N/c2ccc(OCCN3CCCC3)cc2)cc1 [trans-LTA4H-Photoswitch] | – | trans-LTA4H-Photoswitch was a more potent inhibitor of LTA4H peptidase than the cis-isomer |
